Test results from patent publication US20220184172A1, “AMPK/CASPASE-6 AXIS CONTROLS LIVER DAMAGE IN NONALCOHOLIC STEATOHEPATITIS” (The Regents of the University of California, priority 2019, published 2022).

How the values were obtained:
[1] = system: CD-HFD-fed Flox and LAKO mice; experiment: A-769662 in CD-HFD-fed Flox and LAKO mice; type: in vivo; settings: 25 mg/kg i.p. daily for 2 weeks
Procedure: FIGS. 13A-13I. A-769662 improves liver damage through AMPK activation in hepatocytes in NASH. C57BL/6J mice were fed with CD-HFD for 8 weeks. After 6 weeks of CD-HFD feeding, mice were intraperitoneally injected with 25 mg/kg A-769662 or vehicle daily for 2 weeks along with continuous CD-HFD feeding. FIG. 13A. Schematic diagram of experimental design. FIG. 13B-13C. Body weight (FIG. 13B) and liver weight (FIG. 13C) of indicated mice. n=7. FIG. 13D. Measurement of liver triglyceride (TG) of indicated mice. n=7. FIG. 13E. Quantification of the numbers of TUNEL-positive nuclei per field in liver sections shown in (FIG. 10B (W6), 10A). n=5-7 *, P<0.05, Student's unpaired t test. FIG. 13F-13H. Flox and LAKO mice were fed with CD-HPD for 8 weeks. After 6 weeks of CD-HFD feeding, mice were intraperitoneally injected with 25 mg/kg A-769662 or vehicle daily for 2 weeks along with continuous CD-HFD feeding. FIG. 13F. Paraffin-embedded liver sections of indicated mice were stained with TUNEL and DAPI as indicated therein; in the merged image sections, the different stains correspond to the grayscale shades as indicated in the single stained images to the left. Scale bar=50 μm. FIG. 13G. FIG. 13H. Serum ALT of indicated mice. n=4-5. *, P<0.05, two-way ANOVA. FIG. 13I. Expression of Adgre1 and Ccl2 in the liver of indicated mice. n=7. Data are shown as mean±SEM. *, P<0.05, Student's unpaired t test.
(§1) FIGS. 15A-15F. AMPK phosphorylates caspase-6 and inhibits its cleavage. FIG. 15A. Caspase-6 activity was measure in the lysates from isolated primary hepatocytes treated with vehicle or 250 μM BSA-conjugated palmitic acid (PA) or 50 ng/ml TNFα for 2 hrs. Data are shown as mean±SD. *, P<0.05, Student's unpaired t test. FIG. 15B. HepG2 cells were pretreated with 40 μM A-769662 for 1 hr, and then treated with 30 μg/ml cycloheximide (CHX) and 50 ng/ml TNFα for 2 hrs. Cell lysates were subject to immunoblot (IB) analysis. FIG. 15C. […] Quantification of IB analysis in FIG. 15D. n=3. *, P<0.05, two-way ANOVA. […] Quantification of IB analysis in FIG. 5K. n=3. […]

[2] = system: procaspase-6 cleavage in HepG2 cells; experiment: Procaspase-6 cleavage induced by TNFα and CHX in HepG2 cells (IB); type: cell-based; settings: 40 μM pretreatment 1 hr, then 30 μg/ml CHX and 50 ng/ml TNFα 2 hrs
Procedure: as §1, with “15C. In vitro kinase assay using purified caspase-6-mycexpressed in HEK293T cells, and recombinant AMPKα1β1γ1 active kinase. FIGS. 15D-15E. Flox and LAKO mice were fed with CD-HFD for 8 weeks. After 6 weeks of CD-HFD feeding, mice were intraperitoneally injected with 25 mg/kg A-769662 or vehicle daily for 2 weeks along with continuous CD-HFD feeding. FIG. 15D.” for “15C.”
Western blot was performed as previously described(11). […] Supernatants were collected and analyzed with BCA (Thermo Scientific) to quantify protein content. […] Individual proteins were detected with specific antibodies and visualized on film using horseradish peroxidase-conjugated secondary antibodies (Fisher Scientific) and SuperSignal West Pico PLUS Chemilunminescent Substrate (Thermo Scientific).

[3] = system: C57BL/6J mice fed 45% HFD; settings: 30 mg/kg twice per day for 7 days; cited from earlier work

SMILES: N#Cc1c(O)c2c(-c3ccc(-c4ccccc4O)cc3)csc2[nH]c1=O [A-769662]
- procaspase-6 cleavage (liver lysates) ([1]; Flox mice): decreased
- procaspase-6 phosphorylation (liver lysates) ([1]; Flox mice): significantly increased
- number of apoptotic cells (TUNEL) ([1]; LAKO mice): did not decrease
- procaspase-6 cleavage [2]: significantly inhibited
- hepatic triglycerides [3]: reduced
